In assay [1] the test system is NCI-H358. Description: relative IC50 of cell viability (CellTiter-Glo); higher = less potent. An outline of the steps: (§1)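 The NCI-H2122, SW837 and NCI-H358 cell lines were plated in 384-well format at 800, 500 and 500 cells/well respectively, in 60 µl. After a 24 h wait, single compounds were applied in dose series by acoustic dispensing, and plates were incubated 72 h, or 144 h in the case of SW837. Readout was CellTiter-Glo luminescence on an EnVision reader following 15 min shaking, normalised to DMSO controls. Both the relative IC50 (a mean over replicates) and the lower plateau derive from a four-parameter nonlinear fit.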
(In ATP-based viability assays light output follows the ATP content of the culture.)

Assay [2] concerns NCI-H2122. Kind of assay: fitted bottom plateau of viability curve, % of DMSO control; higher = less maximal inhibition; extreme values may be limits of the assay. An outline of the steps:
as §1

For assay [3], the system named is NCI-H358. The description is as above. Summed up: as §1
For assay [4], the system named is SW837. Described as above. Summed up: as §1
Assay [5] deals with NCI-H2122. Description: relative IC50 of cell viability (CellTiter-Glo); higher = less potent. An outline of the steps: as §1
For assay [6], the system named is NCI-H2122. Description: combination cScore with adagrasib (Bliss gap around IC50) (%PoC); higher = stronger additive effect. Summed up: (§2)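 NCI-H2122, NCI-H358 and SW837 cells (500 or 800 per well, 384-well plates) were dosed in concentration matrices after 24 h and grown 72 h, or 144 h for SW837. CellTiter-Glo luminescence was normalised to vehicle wells as percent of control and fitted with four-parameter curves. The score averages the Bliss-independence gap (expected minus measured viability) over a field around both monotherapy IC50s, or at the top concentrations when no IC50 was reached.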

In assay [7] the test system is NCI-H358. The assay is described as above. An outline of the steps:
as §2

Assay [8] deals with SW837. The description is as above. An outline of the steps: as §2

In the case of `Cc1c(CN2CCC(Nc3ncnc4sc(CC(F)(F)F)cc34)CC2)ccc2[nH]c(C#N)cc12` [MI-463] (top concentration tested 5000 nM), in assay [1], the “relative IC50 of cell viability” value amounted to 3.91 µM. Besides, the “fitted bottom plateau of viability curve” value in assay [2] was 79.5%; in assay [3], 0%; in assay [4], 86.6%.

`CC(C)n1nc(-c2ccc3oc(N)nc3c2)c2c(N)ncnc21` [MLN-0128] (top concentration tested 99.893 nM): the “relative IC50 of cell viability” value in assay [5] came out at 0.0259 µM; in assay [1], 0.0272 µM. In addition, the “fitted bottom plateau of viability curve” value in assay [2] was found to be 22.6%; in assay [3], 17.7%; in assay [4] it was 85.3%.

For `C=CC(=O)N1CCC[C@@H](n2nc(-c3ccc(Oc4ccccc4)cc3)c3c(N)ncnc32)C1` [Ibrutinib] (top concentration tested 10000 nM), the “relative IC50 of cell viability” value in assay [1] was 0.262 µM. The “fitted bottom plateau of viability curve” value turned out to be 76.7% in assay [2], 12.4% in assay [3] and 76.6% in assay [4].

Consider `CCN(CCCOc1ccc2c(Nc3cc(CC(=O)Nc4cccc(F)c4)[nH]n3)ncnc2c1)CCOP(=O)(O)O` [AZD-1152] (top concentration tested 1000.1 nM), for which the “relative IC50 of cell viability” value in assay [1] worked out at 0.028 µM. Moreover, the entries for the “fitted bottom plateau of viability curve” value in assay [2], in assay [3] and in assay [4] were 57.4%, 60.1% and 62%, respectively.

For the compound `C[C@@H]1OCC2(CCN(c3cnc(Sc4ccnc(N)c4Cl)c(N)n3)CC2)[C@@H]1N` [TNO155] (top concentration tested 10000 nM), the “relative IC50 of cell viability” value in assay [1] worked out at 0.499 µM. For the same compound, the figures for the “fitted bottom plateau of viability curve” value in assay [2], in assay [3] and in assay [4] were 69.5%, 29.4% and 94.5%, respectively.

Consider `Cc1c(CN2CCC(Nc3ncnc4sc(CC(F)(F)F)cc34)CC2)ccc2[nH]c(C#N)cc12` [MI-463] + C=C(F)C(=O)N1CCN(c2nc(OC[C@@H]3CCCN3C)nc3c2CCN(c2cccc4cccc(Cl)c24)C3)C[C@@H]1CC#N [adagrasib], for which the “combination cScore with adagrasib” value in assay [6] came out at 19.7; in assay [7], 5.31; in assay [8], 0.27.

As for `COc1cc(Nc2ncc(F)c(Nc3ccc4c(n3)N(COP(=O)(O)O)C(=O)C(C)(C)O4)n2)cc(OC)c1OC` [Fostamatinib] + C=C(F)C(=O)N1CCN(c2nc(OC[C@@H]3CCCN3C)nc3c2CCN(c2cccc4cccc(Cl)c24)C3)C[C@@H]1CC#N [adagrasib], the “combination cScore with adagrasib” value worked out at 17.4 in assay [6], 3.37 in assay [7] and 7.91 in assay [8].

Take `C#Cc1cccc(Nc2ncnc3cc(OCCOC)c(OCCOC)cc23)c1` [Erlotinib] + C=C(F)C(=O)N1CCN(c2nc(OC[C@@H]3CCCN3C)nc3c2CCN(c2cccc4cccc(Cl)c24)C3)C[C@@H]1CC#N [adagrasib]: the “combination cScore with adagrasib” value in assay [6] was 14.9; in assay [7], 10; in assay [8] it was 19.4.

Turning to `CCN(CCCOc1ccc2c(Nc3cc(CC(=O)Nc4cccc(F)c4)[nH]n3)ncnc2c1)CCOP(=O)(O)O` [AZD-1152] + C=C(F)C(=O)N1CCN(c2nc(OC[C@@H]3CCCN3C)nc3c2CCN(c2cccc4cccc(Cl)c24)C3)C[C@@H]1CC#N [adagrasib], the “combination cScore with adagrasib” value in assay [6] stood at 12.7; in assay [7], 2.1; in assay [8], 4.03.

As to `CN(C)C/C=C/C(=O)Nc1cc2c(Nc3ccc(F)c(Cl)c3)ncnc2cc1O[C@H]1CCOC1` [Afatinib] + C=C(F)C(=O)N1CCN(c2nc(OC[C@@H]3CCCN3C)nc3c2CCN(c2cccc4cccc(Cl)c24)C3)C[C@@H]1CC#N [adagrasib], the “combination cScore with adagrasib” value came out at 11.1 in assay [6], 11.5 in assay [7] and 21.2 in assay [8].

`CC1(C)CCC(c2ccc(Cl)cc2)=C(CN2CCN(c3ccc(C(=O)NS(=O)(=O)c4ccc(N[C@H](CCN5CCOCC5)CSc5ccccc5)c(S(=O)(=O)C(F)(F)F)c4)cc3)CC2)C1` [ABT-263] + C=C(F)C(=O)N1CCN(c2nc(OC[C@@H]3CCCN3C)nc3c2CCN(c2cccc4cccc(Cl)c24)C3)C[C@@H]1CC#N [adagrasib]: the “combination cScore with adagrasib” value in assay [6] was found to be 12.1; in assay [7], 6.81; in assay [8] it was 30.9.

As to `CC1(N)CCN(c2cnc(-c3cccc(Cl)c3Cl)c(N)n2)CC1` [SHP099] + C=C(F)C(=O)N1CCN(c2nc(OC[C@@H]3CCCN3C)nc3c2CCN(c2cccc4cccc(Cl)c24)C3)C[C@@H]1CC#N [adagrasib], the “combination cScore with adagrasib” value was found to be 19.4 in assay [6], 1.39 in assay [7] and 14.3 in assay [8].

In the case of `CC(=O)c1c(C)c2cnc(Nc3ccc(N4CCNCC4)cn3)nc2n(C2CCCC2)c1=O` [Palbociclib] (top concentration tested 5000 nM), the “relative IC50 of cell viability” value in assay [1] was 0.859 µM. Also, the “fitted bottom plateau of viability curve” value was found to be 59.8% in assay [2], 34.2% in assay [3] and 93.5% in assay [4].

Consider `CC(C)C[C@H](NC(=O)[C@H](Cc1ccccc1)NC(=O)c1cnccn1)B(O)O` [Bortezomib] + C=C(F)C(=O)N1CCN(c2nc(OC[C@@H]3CCCN3C)nc3c2CCN(c2cccc4cccc(Cl)c24)C3)C[C@@H]1CC#N [adagrasib], for which the “combination cScore with adagrasib” value is 4.5 in assay [6], 0 in assay [7] and -1.68 in assay [8].

As for `Cc1nc(NC(=O)N2CCC[C@H]2C(N)=O)sc1-c1ccnc(C(C)(C)C(F)(F)F)c1` [BYL-719] + C=C(F)C(=O)N1CCN(c2nc(OC[C@@H]3CCCN3C)nc3c2CCN(c2cccc4cccc(Cl)c24)C3)C[C@@H]1CC#N [adagrasib], the “combination cScore with adagrasib” value in assay [6] was 14.3; in assay [7], 3.99; in assay [8] it was 17.

Take `O=c1cc(-c2cccc3c2Sc2ccccc2S3)oc(N2CCOCC2)c1` + C=C(F)C(=O)N1CCN(c2nc(OC[C@@H]3CCCN3C)nc3c2CCN(c2cccc4cccc(Cl)c24)C3)C[C@@H]1CC#N [adagrasib]: the figures for the “combination cScore with adagrasib” value in assay [6], in assay [7] and in assay [8] were 12.4, 7.9 and 4.85, respectively.

Turning to `CC(=O)c1c(C)c2cnc(Nc3ccc(N4CCNCC4)cn3)nc2n(C2CCCC2)c1=O` [Palbociclib] + C=C(F)C(=O)N1CCN(c2nc(OC[C@@H]3CCCN3C)nc3c2CCN(c2cccc4cccc(Cl)c24)C3)C[C@@H]1CC#N [adagrasib], the “combination cScore with adagrasib” value in assay [6] turned out to be 8.54; in assay [7], 2.62; in assay [8] it was 19.2.

In the case of `COc1cc(CCc2cc(NC(=O)c3ccc(N4CC(C)NC(C)C4)cc3)n[nH]2)cc(OC)c1` (stereo not given) [AZD4547] + C=C(F)C(=O)N1CCN(c2nc(OC[C@@H]3CCCN3C)nc3c2CCN(c2cccc4cccc(Cl)c24)C3)C[C@@H]1CC#N [adagrasib], the figures for the “combination cScore with adagrasib” value in assay [6], in assay [7] and in assay [8] were 11.3, -1.38 and 5.13, respectively.

On to `CCCc1cc(C)[nH]c(=O)c1CNC(=O)c1cc(-c2ccnc(N3CCN(C)CC3)c2)cc2c1cnn2C(C)C` [GSK343] + C=C(F)C(=O)N1CCN(c2nc(OC[C@@H]3CCCN3C)nc3c2CCN(c2cccc4cccc(Cl)c24)C3)C[C@@H]1CC#N [adagrasib], for which the “combination cScore with adagrasib” value in assay [6] was 15.8; in assay [7], 4.64; in assay [8] it was -0.82.

On to `Cc1cc(C)c(CNC(=O)c2cc(-c3ccc(N4CCNCC4)nc3)cc3c2c(C)cn3C2CCCC2)c(=O)[nH]1` + C=C(F)C(=O)N1CCN(c2nc(OC[C@@H]3CCCN3C)nc3c2CCN(c2cccc4cccc(Cl)c24)C3)C[C@@H]1CC#N [adagrasib], for which the “combination cScore with adagrasib” value in assay [6] is 20.3; in assay [7], 5.44; in assay [8], -0.2.

Regarding `C[C@H](Nc1ncnc2nc[nH]c12)c1cc2cccc(Cl)c2c(=O)n1-c1ccccc1` [Duvelisib] + C=C(F)C(=O)N1CCN(c2nc(OC[C@@H]3CCCN3C)nc3c2CCN(c2cccc4cccc(Cl)c24)C3)C[C@@H]1CC#N [adagrasib], the “combination cScore with adagrasib” value in assay [6] was found to be 15.9; in assay [7] it was 4.67; in assay [8], 12.8.

Source of the values: the supplement of paper PMC11424490.
